Test results as given in patent US12318484B2 (priority 2016, dated 2025).

System: IL-1B, IL-8, TLR7 and TLR8 mRNA
Format: cell-based, ferrets
Details: 100 μM, ferret whole blood

## CL075
  IL-1B, IL-8, TLR7 and TLR8 mRNA: significant increases
